From patent US6930227B1 (Mitsui Chemicals, Inc., priority 1999, dated 2005)

Tests used:
N-methyl transferase [1] = molecular target: T1, N-methyl transferase (Camellia sinensis, UniProt Q9FZN8); test: N-methyl transferase measurement with enzyme solution from Escherichia coli expressing the gene (14C-caffeine extraction); format: biochemical; conditions: for production of methylated product from the added substrate: substrate added instead of paraxanthine, same reaction solution
T1 construct: made in house; host or cells: Escherichia coli BL21 (DE3), vector pET23d
T1 sequence (Q9FZN8 14-369 limits assumed): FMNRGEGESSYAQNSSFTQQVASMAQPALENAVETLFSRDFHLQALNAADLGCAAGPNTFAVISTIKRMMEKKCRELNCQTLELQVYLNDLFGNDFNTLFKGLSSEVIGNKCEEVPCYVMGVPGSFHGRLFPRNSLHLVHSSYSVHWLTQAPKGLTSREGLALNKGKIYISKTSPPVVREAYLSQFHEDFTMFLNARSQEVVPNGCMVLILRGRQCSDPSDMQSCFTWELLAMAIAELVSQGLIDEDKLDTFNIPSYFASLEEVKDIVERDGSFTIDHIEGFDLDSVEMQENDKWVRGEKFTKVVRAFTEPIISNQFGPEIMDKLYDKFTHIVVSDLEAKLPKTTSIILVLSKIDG
Description: Separately, a fragment obtained by treating the isolated N-methyl transferase gene DNA fragment with NcoI and EcoRI was inserted into a pET23d vector. Then, the above PCR product was inserted into the NcoI site of this pET23d vector to construct an N-methyl transferase expression plasmid. This plasmid was transformed to Escherichia coli BL21 (DE3). After the obtained Escherichia coli was cultured at 37° C. for 2 hours, IPTG was added thereto so as to be 0.3 mM in final concentration, and 3-hour culture was further carried out at 30° C. After culturing had been completed, cells were collected and the cells from 3 ml culture solution were subjected to supersonic treatment for 1 minute with interval in 0.2 ml 10 mM Tris-hydrochloric acid buffer solution (pH 7.5), 0.1 M NaCl, 1 mM EDTA-Na2. Then, centrifugation was carried out at 14,000 rpm for 10 minutes, and the obtained supernatant was employed as an enzyme solution.
The reaction solution for N-methyl transferase measurement was prepared as follows. […] Reaction was carried out at 27° C. for 10 minutes, the obtained ^14C-caffeine was extracted by adding 1 ml chloroform thereto and the radiation activity of a chloroform layer was measured. As a control, xanthosine was added to the reaction solution instead of paraxanthine or paraxanthine was removed.

N-methyl transferase [2] = molecular target: T2, N-methyl transferase (Camellia sinensis, UniProt Q9FZN8); format: biochemical
T2 sequence (Q9FZN8 1-369): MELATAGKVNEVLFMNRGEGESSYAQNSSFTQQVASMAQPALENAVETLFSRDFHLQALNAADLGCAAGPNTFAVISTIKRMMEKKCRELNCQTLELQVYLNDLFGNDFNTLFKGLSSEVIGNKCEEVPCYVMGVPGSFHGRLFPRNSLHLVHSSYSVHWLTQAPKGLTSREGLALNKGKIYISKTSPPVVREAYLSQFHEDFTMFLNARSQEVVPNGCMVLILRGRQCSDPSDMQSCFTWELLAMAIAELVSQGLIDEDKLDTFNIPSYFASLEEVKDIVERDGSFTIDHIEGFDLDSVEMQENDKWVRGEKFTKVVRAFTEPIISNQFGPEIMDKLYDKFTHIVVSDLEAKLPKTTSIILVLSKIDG
Description: Inhibitor: SAH (S-adenosyl homocysteine)
The reaction solution for N-methyl transferase measurement was prepared as follows. […] Reaction was carried out at 27° C. for 10 minutes, the obtained ^14C-caffeine was extracted by adding 1 ml chloroform thereto and the radiation activity of a chloroform layer was measured.

[3] = substrate: Cn1c(=O)[nH]c2ncn(C)c2c1=O; test: purified protein, by the assay type; conditions: other: substrate of the N-methyl transferase; pH 8.5; 27.0 °C

With `Cn1cnc2[nH]c(=O)[nH]c(=O)c21` [7-methyl xanthine] the “production of methylated product from the added substrate” value (“production of methylated product” below) (N-methyl transferase [1]) was “production of theobromine was observed”.

`Nc1ncnc2c1ncn2[C@@H]1O[C@H](CSCC[C@H](N)C(=O)O)[C@@H](O)[C@H]1O` [SAH, S-adenosyl homocysteine] was tested, and the Inhibitor (N-methyl transferase [2]; inhibitor of the N-methyl transferase) was “Inhibitor”.

For `C[S+](CC[C@H](N)C(=O)[O-])C[C@H]1O[C@@H](n2cnc3c(N)ncnc32)[C@H](O)[C@@H]1O` (some centres unmarked) [SAM, S-adenosyl methionine], the Km (N-methyl transferase [2]; substrate of the N-methyl transferase) was 21 µM.

`Cn1c(=O)[nH]c2ncn(C)c2c1=O` [paraxanthine] showed a caffeine produced (N-methyl transferase [1]; 0.2 mM substrate, 4 μM S-adenosyl methionine, 10 μl enzyme solution, pH 8.5, 27° C., 10 minutes) of 1.56 pmol.

`Cn1cnc2c1c(=O)[nH]c(=O)n2C` [theobromine] was tested, and the “production of methylated product” value (N-methyl transferase [1]) was “production of caffeine was observed”.

In the case of `O=c1[nH]c(=O)c2ncn([C@@H]3O[C@H](CO)[C@@H](O)[C@H]3O)c2[nH]1` [xanthosine], the “production of methylated product” value (N-methyl transferase [1]) is reported as “caffeine was produced only when paraxanthine was added”.

B1: N-methyl transferase: polypeptide of SEQ ID NO: 1 with 7-methyl xanthine N3, theobromine N1 and paraxanthine N3 methyl transferase activities (protein)
chain: T1 sequence (Q9FZN8 14-369 limits assumed)
B1 was tested, and the “Optimum pH” value (N-methyl transferase [2]) was 8.5.

B2: N-methyl transferase (Camellia sinensis) (protein)
chain: T2 sequence (Q9FZN8 1-369)
In the case of B2, the Km [3] is reported as 24 µM.
